These results are taken from patent US12612424B2, “HPK1 inhibitors and uses thereof” (Regor Pharmaceuticals, Inc., priority 2019, dated 2026).

SMILES strings stand for the structures. Bounds are passed on as bounds.

In the assay the test system is Human Pan T Cell (IL-2 release). Put plainly: IL2 released by human pan T cell upon anti-CD3/anti-CD28 stimulation (ELISA). In kind it is cell-based. The note with it: human pan T cells; for maximal fold induction / EC (2-fold response): 48 h; for maximal fold induction: response of IL-2 over DMSO control, anti-CD3/anti-CD28, 48 hours, ELISA, read-out: IL-2 Max Fold Response; for EC50: IL-2 response, calculated with GraphPad Prism; for EC2x (nM) / EC (2-fold response): concentration of compound that gives 200% IL-2 response (2 folds) over DMSO control. Summed up: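 Primary human pan-T cells, negatively isolated from PBMC, plated at 100,000 cells/well and stimulated with immobilized anti-CD3 plus soluble anti-CD28 in presence of test compound at varying concentrations. After 2 days, secreted IL-2 in supernatant quantified by ELISA.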

With `COC(=O)C1(C)CN(c2nc(Nc3cc4c(cc3OC)CCN(C)C4)ncc2Cl)c2ccccc21` (stereo not shown) [Example 116], the “EC2x (nM)” value is given as “++ (“++”, for higher values than “+++” but less than or equal to 1 μM)”. For the same compound, under “Homo sapiens, T-cell”, the maximal fold induction was greater than 2 and the EC50 (usually the concentration needed to bring the measured effect to its halfway point) was 500 to 1000 nM.
Consider `COc1cc2c(cc1Nc1ncc(Cl)c(N3CC(P(C)(C)=O)c4ccccc43)n1)CN(C)CC2` (stereo not shown) [Example 88], for which, where the note is “Homo sapiens, T-cell”, the maximal fold induction is less than 2 and the EC50 was 500 to 1000 nM.
Consider `COc1cc2c(cc1Nc1ncc(Cl)c(-n3cc(CC(=O)O)c4cc(F)c(F)cc43)n1)CN(C)CC2` [Example 140], for which, where the note is “Homo sapiens, T-cell”, the EC (2-fold response) lay within 0.1 to 0.5 µM, the maximal fold induction was greater than 2 and the EC50 was 100 to 500 nM.
Regarding `COc1cc2c(cc1Nc1ncc(Cl)c(N3CC(C(=O)NO)c4ccccc43)n1)CN(C)CC2` (stereo not shown) [Example 101, 1-(5-Chloro-2-((6-methoxy-2-methyl-1,2,3,4-tetrahydroisoquinolin-7-yl)amino)pyrimidin-4-yl)-N-hydroxyindoline-3-carboxamide], the maximal fold induction (Homo sapiens, T-cell) is less than 2.
For `CNC(=O)Cc1cn(-c2nc(Nc3cc4c(cc3OC)CCN(C)C4)ncc2Cl)c2ccccc12` [Example 136], under “Homo sapiens, T-cell”, the maximal fold induction is less than 2 and the EC50 is 500 to 1000 nM.
As to `COc1cc2c(cc1Nc1ncc(Cl)c(N3CC(C)(C(=O)O)c4cc(F)ccc43)n1)CN(C)CC2` (stereo not shown) [Example 125], where the note is “Homo sapiens, T-cell”, the EC (2-fold response) is no more than 0.1 µM, the maximal fold induction is greater than 2 and the EC50 is no more than 100 nM.
As to `COc1cc2c(cc1Nc1ncc(Cl)c(N3CCc4c(C(F)F)cccc43)n1)CN(C)CC2` [Example 92, N-(5-chloro-4-(4-(difluoromethyl)indolin-1-yl)pyrimidin-2-yl)-6-methoxy-2-methyl-1,2,3,4-tetrahydroisoquinolin-7-amine], the maximal fold induction (Homo sapiens, T-cell) is less than 2.
As for `COc1cc2c(cc1Nc1ncc(Cl)c(N3CC(C)(CC(=O)O)c4ccccc43)n1)CN(C)CC2` (single isomer, unassigned) [Example 147], the EC50 was 500 to 1000 nM. For the same compound, the maximal fold induction (Homo sapiens, T-cell) was less than 2.
`COc1cc2c(cc1Nc1ncc(C(F)(F)F)c(-n3ccc4ccccc43)n1)CN(C)CC2` [Example 10, N-(4-(1H-indol-1-yl)-5-(trifluoromethyl)pyrimidin-2-yl)-6-methoxy-2-methyl-1,2,3,4-tetrahydroisoquinolin-7-amine]: the maximal fold induction (Homo sapiens, T-cell) was less than 2.
Turning to `COc1cc2c(cc1Nc1ncc(Cl)c(N3C[C@@](C)(C(=O)O)c4ccccc43)n1)CN(C)CC2` (single isomer, unassigned) [Example 119], where the note is “Homo sapiens, T-cell”, the EC (2-fold response) is no more than 0.1 µM, the maximal fold induction is greater than 2 and the EC50 was no more than 100 nM.
The corresponding values for `COc1cc2c(cc1Nc1ncc(Cl)c(-n3cc(CC(=O)O)c4ccccc43)n1)CN(C)CC2` [Example 129] are 0.1 to 0.5 µM, greater than 2 and 100 to 500 nM.
For the compound `COc1cc2c(cc1Nc1ncc(Cl)c(-n3cc(S(N)(=O)=O)c4ccccc43)n1)CN(C)CC2` [Example 83, 1-(5-Chloro-2-((6-methoxy-2-methyl-1,2,3,4-tetrahydroisoquinolin-7-yl)amino)pyrimidin-4-yl)-1H-indole-3-sulfonamide], under “Homo sapiens, T-cell”, the maximal fold induction was less than 2 and the EC50 is 100 to 500 nM.
Consider `COC(=O)C1CN(c2nc(Nc3cc4c(cc3OC)CCN(C)C4)ncc2Cl)c2ccccc21` (stereo not shown) [Example 115, Methyl 1-(5-chloro-2-((6-methoxy-2-methyl-1,2,3,4-tetrahydroisoquinolin-7-yl)amino)pyrimidin-4-yl)indoline-3-carboxylate], for which, under “Homo sapiens, T-cell”, the EC (2-fold response) is 0.1 to 0.5 µM, the maximal fold induction was greater than 2 and the concentration giving a half-maximal response (EC50) was 100 to 500 nM.
Take `COc1cc2c(cc1Nc1ncc(Cl)c(N3CC(C)(CC(=O)O)c4ccccc43)n1)CN(C(C)C)CC2` (stereo not shown) [Example 158, 2-(1-(5-Chloro-2-((2-isopropyl-6-methoxy-1,2,3,4-tetrahydroisoquinolin-7-yl)amino)pyrimidin-4-yl)-3-methylindolin-3-yl)acetic acid]: under “Homo sapiens, T-cell”, the EC (2-fold response) was no more than 0.1 µM, the maximal fold induction is greater than 2 and the EC50 was no more than 100 nM.
In the case of `COc1cc2c(cc1Nc1ncc(Cl)c(N3CC(C)(CC(=O)O)c4ccccc43)n1)CNCC2` (stereo not shown) [Example 160, 2-(1-(5-Chloro-2-((6-methoxy-1,2,3,4-tetrahydroisoquinolin-7-yl)amino)pyrimidin-4-yl)-3-methylindolin-3-yl)acetic acid methanesulfonic acid], for the setting “Homo sapiens, T-cell”, the EC (2-fold response) was no more than 0.1 µM, the maximal fold induction is greater than 2 and the EC50 was no more than 100 nM.
`COc1cc2c(cc1Nc1ncc(Cl)c(-n3cc(CC(=O)O)c4cc(F)ccc43)n1)CN(C)CC2` [Example 138]: where the note is “Homo sapiens, T-cell”, the EC (2-fold response) was 0.1 to 0.5 µM, the maximal fold induction is greater than 2 and the EC50 is 100 to 500 nM.
As to `CN1CCc2cc(Cl)c(Nc3ncc(Cl)c(N4CCc5ccccc54)n3)cc2C1` [Example 15, 6-Chloro-N-(5-chloro-4-(indolin-1-yl)pyrimidin-2-yl)-2-methyl-1,2,3,4-tetrahydroisoquinolin-7-amine], the “EC2x (nM)” value was “+ (“+”, for greater than 1 μM)”. In addition, where the note is “Homo sapiens, T-cell”, the maximal fold induction is greater than 2 and the EC50 is greater than 1000 nM.
On to `COc1cc2c(cc1Nc1ncc(Cl)c(N3CCc4ccccc43)n1)CN(C)CC2` [Example 4, N-(5-Chloro-4-(indolin-1-yl)pyrimidin-2-yl)-6-methoxy-2-methyl-1,2,3,4-tetrahydroisoquinolin-7-amine], for which, where the note is “Homo sapiens, T-cell”, the EC (2-fold response) lay in the range of 0.1 to 0.5 µM, the maximal fold induction was greater than 2 and the EC50 is 100 to 500 nM.
In the same order, the values of `COc1cc2c(cc1Nc1ncc(Cl)c(N3CC(C)(CC(=O)O)c4ccc(F)cc43)n1)CN(C)CC2` (single isomer, unassigned) [Example 152] are no more than 0.1 µM, greater than 2 and no more than 100 nM.
Take `COc1cc2c(cc1Nc1ncc(Cl)c(-n3nc(CC(=O)O)c4ccccc43)n1)CN(C)CC2` [Example 141]: the “EC2x (nM)” value is “++ (“++”, for higher values than “+++” but less than or equal to 1 μM)”. Where the note is “Homo sapiens, T-cell”, the maximal fold induction was greater than 2 and the EC50 is greater than 1000 nM.
As for `COc1cc2c(cc1Nc1ncc(Cl)c(N3CC(C)(CC(=O)O)c4ccccc43)n1)CN(C)CC2` (stereo not shown) [Example 146], where the note is “Homo sapiens, T-cell”, the EC (2-fold response) was no more than 0.1 µM, the maximal fold induction is greater than 2 and the EC50 is no more than 100 nM.
For `COc1cc2c(cc1Nc1ncc(Cl)c(N3CC(C(=O)O)c4ccccc43)n1)CN(C)CC2` (single isomer, unassigned) [Example 96], under “Homo sapiens, T-cell”, the EC (2-fold response) is 0.1 to 0.5 µM, the maximal fold induction is greater than 2 and the EC50 is 100 to 500 nM.
`COc1cc2c(cc1Nc1ncc(Cl)c(N3CC(C#N)c4ccccc43)n1)CN(C)CC2` (stereo not shown) [Example 99, 1-(5-Chloro-2-((6-methoxy-2-methyl-1,2,3,4-tetrahydroisoquinolin-7-yl)amino)pyrimidin-4-yl)indoline-3-carbonitrile]: the maximal fold induction (Homo sapiens, T-cell) is less than 2.
With `COc1cc2c(cc1Nc1ncc(Cl)c(-n3nc(C(=O)O)c4ccccc43)n1)CN(C)CC2` [Example 113], under “Homo sapiens, T-cell”, the maximal fold induction is less than 2 and the EC50 is greater than 1000 nM.
In the same order, the values of `COc1cc2c(cc1Nc1ncc(Cl)c(-n3cc(CC(N)=O)c4ccccc43)n1)CN(C)CC2` [Example 133] are less than 2 and greater than 1000 nM.
As to `COc1cc2c(cc1Nc1ncc(Cl)c(N3CC(C)(C(=O)O)c4ccc(F)cc43)n1)CN(C)CC2` (stereo not shown) [Example 126], where the note is “Homo sapiens, T-cell”, the EC (2-fold response) was no more than 0.1 µM, the maximal fold induction is greater than 2 and the EC50 was no more than 100 nM.
Consider `COc1cc2c(cc1Nc1ncc(Cl)c(-n3cc(CC(=O)OC(C)C)c4ccccc43)n1)CN(C)CC2` [Example 130, Isopropyl 2-(1-(5-chloro-2-((6-methoxy-2-methyl-1,2,3,4-tetrahydroisoquinolin-7-yl)amino)pyrimidin-4-yl)-1H-indol-3-yl)acetate], for which the maximal fold induction (Homo sapiens, T-cell) was less than 2.
As to `COc1cc2c(cc1Nc1ncc(Cl)c(N3CCc4cc(Cl)ccc43)n1)CN(C)CC2` [Example 13, N-(5-chloro-4-(5-chloroindolin-1-yl)pyrimidin-2-yl)-6-methoxy-2-methyl-1,2,3,4-tetrahydroisoquinolin-7-amine], for the setting “Homo sapiens, T-cell”, the maximal fold induction was less than 2 and the EC50 is greater than 1000 nM.
In the same order, the values of `COc1cc2c(cc1Nc1ncc3cc(C#N)n(-c4ccccc4)c3n1)CN(C)CC2` [Example 164, 2-((6-Methoxy-2-methyl-1,2,3,4-tetrahydroisoquinolin-7-yl)amino)-7-phenyl-7H-pyrrolo[2,3-d]pyrimidine-6-carbonitrile] are less than 2 and no more than 100 nM.
As to `COc1cc2c(cc1Nc1nccc(N3CC(C(=O)O)c4ccccc43)n1)CN(C)CC2` (stereo not shown) [Example 163, 1-(2-((6-Methoxy-2-methyl-1,2,3,4-tetrahydroisoquinolin-7-yl)amino)pyrimidin-4-yl)indoline-3-carboxylic acid], the “EC2x (nM)” value is on record as “+ (“+”, for greater than 1 μM)”. Under “Homo sapiens, T-cell”, the maximal fold induction is greater than 2 and the EC50 was greater than 1000 nM.
As to `COc1cc2c(cc1Nc1ncc(Cl)c(N3CC(C)(C(N)=O)c4ccccc43)n1)CN(C)CC2` (stereo not shown) [Example 120, 1-(5-Chloro-2-((6-methoxy-2-methyl-1,2,3,4-tetrahydroisoquinolin-7-yl)amino)pyrimidin-4-yl)-3-methylindoline-3-carboxamide], where the note is “Homo sapiens, T-cell”, the maximal fold induction was less than 2.
